Reference: BigSolDB 2.1

CCc1ccc(CCOc2ccc(CC3SC(=O)NC3=O)cc2)nc1.Cl (stereo not drawn)
solubility (mole fraction)
Details	in DMF	in acetic acid	in ethanol	in methanol	in n-propanol
278.15 K	0.0161	–	0.000535	0.004	0.000325
283.15 K	0.017	–	–	0.00494	0.000395
284.15 K	–	–	0.000626	–	–
288.15 K	0.0183	0.00108	0.000723	0.00615	0.000456
293.15 K	0.0194	0.0015	0.000879	0.00738	0.000522
298.15 K	0.021	0.00203	0.00103	0.0086	0.00063
303.15 K	0.0227	0.00276	0.00121	0.0101	0.00075
308.15 K	0.0247	0.0038	0.00147	0.0121	0.00088
313.15 K	0.0269	0.00558	0.00178	0.0144	0.00104
318.15 K	0.0292	0.00804	0.00222	0.0173	0.00127
323.15 K	0.0323	0.0118	0.00266	0.0211	0.00149
